Measured values reported in patent US8603465B1, “Methods for treatment of polyposis” (Merck Sharp & Dohme, Corp., priority 2006, dated 2013).

System: C57Bl/6J (hIGF1R, Apc^Min/+) mice
Test: Inhibition of polyposis in human IGF1R knock-in Apc Min/+ mice (adenoma number and diameter scored at postnatal day 80)
Assay type: in vivo
Details: small intestine and colon, 19D12 0.02, 0.1, 0.5 mg/mouse i.p. once a week, celecoxib 150, 500, 1500 ppm in diet
From the text: In this example, the ability of anti-IGF1R antibody 19D12 (LCF/HCA: amino acids 20-128 of SEQ ID NO: 8 and 20-137 of SEQ ID NO: 10) to treat familial adenomatous polyposis (FAP) is established in a mouse model for the disease. The model comprises the Apc^Min/+ allele which imparts the FAP phenotype. A phenotype that results from the allele is increased development of intestinal adenomas. The Min mutant mouse has an autosomal dominant heterozygous nonsense mutation in the mouse Apc gene (see e.g., Su et al., Science (Wash D.C.) 256: 668-670 (1992)).
The Min mice are also engineered, by a knock-in mutation, to express the human IGF1R gene. Expression of the IGF1R gene, in the Min mouse, allows determination of the ability of an anti-IGF1R antibody to alleviate the FAP phenotype. […]
Small intestinal adenomas and colonic adenomas are scored for number and diameter at postnatal day 80. […] Small intestine surface area is calculated by summation of the multiples of length of each fixed segment by width, which is measured at the midpoint of each segment. Colon surface area is calculated by multiplying the length of the fixed material from the anorectal junction to the point of insertion of the small intestine, omitting the appendix, by the width at the midpoint. Raw numbers of adenomas observed as well as adenomas per unit of small intestine and colon surface area are calculated.

19D12 (LCF/HCA): anti-IGF1R antibody 19D12 (LCF/HCA: amino acids 20-128 of SEQ ID NO: 8 and 20-137 of SEQ ID NO: 10)
adenomas per unit surface area: dose-dependent reduction
raw adenoma number: dose-dependent reduction
